Legend:
C8161 melanoma cells [1] = experiment: Cell viability (MTT), C8161; format: cell-based, human; settings: C8161, MTT
Description: (§1) Cell viability (MTT) and CFSE Proliferation assay: Cells were plated in 96-well plates and let adhere overnight. After cell treatment, cell viability was measured by 3-(4,5-dimethylthiazol-2-yl)-2,5-diphenyl tetrazolium bromide (MTT) assay (CellTiter 96® Aqueous, Promega, Madison, Wis.).
(§2) Cell viability and detachment assays: After cells were treated with siRNA transfection, cell viability was measured by 3-(4,5-dimethylthiazol2-yl)-2,5-diphenyl tetrazolium bromide (MTT) assay (CellTiter 96® AQueous, Promega, Madison, Wis.). Briefly, 20 μl of the tetrazolium compound was added to each well. The cells were then incubated at 37° C. for 1 h. The plate was read at 490 nm with a plate reader to determine the viability. In detachment assays, detached and attached cells were harvested separately and counted in a hemocytometer. The percentage of detachment was calculated by dividing the number of detached cells by the total number of cells. Apoptosis assays: After treatment, attached and detached cells were collected, counted and prepared for terminal uridine deoxynucleotidyl transferase (TUNEL) assay by utilizing an APO-BRDU kit (BD Pharmingen, San Diego, Calif.) according to the manufacturer's instructions. Stained cells were analyzed with a fluorescence-activated cell sorting-Calibur flow cytometer (BD Biosciences). Calculation of the percentage of apoptotic cells in the sample was completed with CellQuest software (BD Biosciences). Apoptotic cells were also analyzed by Hoechst staining. Hoechst 33342 ([…]) was added to the fixed cells and the specimens were mounted on glass coverslips. The slides were viewed under the Zeiss microscope for apoptotic nuclei. The percent of apoptotic cells was calculated as the ratio of apoptotic cells to total number of cells.
(§3) In addition, the effect of INT2-31 on cell viability of esophageal, pancreatic and breast cancer cell lines was analyzed and the IC50 value for each cell line was determined, as shown in Table 1. […] Similar to melanoma results, INT2-31 inhibits viability more in cancer cells compared to normal cells. Sensitivity of the cells to INT2-31 varied and directly correlated to the FAK and IGF-1R expression level of the cells.
To determine the effect on melanoma cell viability, three human melanoma cell lines were exposed to increasing doses of INT2-31 for 72 h and the results compared to human melanocytes. […] The effects of INT2-31 varied in the three cell lines and was possibly related to constitutive FAK and IGF-1R activation with the least sensitive cell line (SK-MEL-28) having the greatest expression of FAK and IGF-1R.

FAK-NT2 and IGF-1R = target: T1, FAK-NT2 and IGF-1R (Homo sapiens, UniProt Q05397); experiment: Immunofluorescent staining and confocal microscopy, colocalization; format: cell-based; settings: cells transfected in the presence of the compound
T1 construct: FAK-NT2 (a.a. 127-243); expressed in transfected cells
T1 sequence (Q05397 127-243): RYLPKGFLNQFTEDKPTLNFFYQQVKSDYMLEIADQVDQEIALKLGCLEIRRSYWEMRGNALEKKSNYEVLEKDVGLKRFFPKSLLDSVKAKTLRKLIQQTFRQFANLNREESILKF
Description: Cells were fixed in 3.7% paraformaldehyde in 1×PBS for 10 min and permeabilized with 0.5% Triton X-100 for 5 minutes. Cells were then washed with 1×PBS, blocked with 25% normal goat serum in 1×PBS for 20 min and incubated with primary antibody (1:200 dilution in 25% goat serum) for 30 min at room temperature. After washing three times with 1×PBS, cells were incubated with a Texas Red-conjugated secondary antibody (1:400 dilution in 25% goat serum) for 30 min at room temperature and washed another three times with 1×PBS before observed under the microscope. For coimmunostaining experiments, cells were incubated with another primary antibody diluted 1:100 in 25% goat serum for 1 h. After washing three times with 1×PBS, a fluorescein isothiocyanate-conjugated secondary antibody (1:100 dilution) was applied to the coverslip. Cells immunostained with FAK and IGF-IR antibodies were evaluated for colocalization with a Leica confocal microscope and the MRC-1024 confocal laser scanning system. Cells treated with FAK-CD or FAK siRNA with or without test compound were stained with FAK antibody and evaluated for displacement of FAK from the focal adhesions with a Zeiss microscope. […] Colocalization is low for FAK-NT1, FAK-NT3 and FAK-CD.

A375 melanoma cells = experiment: Cell viability (MTT), A375; format: cell-based, human; settings: A375, MTT
Description: as §1, §2
as §3, with “Sensitivity of the cells to INT2-31 varied and directly correlated to the FAK and IGF-1R expression level of the cells.” left out

[2] = tested on: KYSE140 esophageal cancer cells; experiment: Cell viability (MTT), KYSE140; format: cell-based; settings: KYSE 140, 72 hours
Description: as §1, §2, §3

[3] = tested on: KYSE70 esophageal cancer cells; experiment: Cell viability (MTT), KYSE70; format: cell-based; settings: KYSE 70, 72 hours
Description: as §1, §2, §3

C8161 melanoma cells [4] = experiment: Detachment assay, C8161 cells; format: cell-based, human; settings: INT2-31 5 μM at 72 h; TAE 226 at 48 h and 72 h
Description: In detachment assays, detached and attached cells were harvested separately and counted in a hemocytometer. The percentage of detachment was calculated by dividing the number of detached cells by the total number of cells.
Detachment assay: Cells were plated with and without compound for 24, 48, and 72 h, and detached and attached cells were counted in a hemocytometer. The percent of detachment was calculated by dividing the number of detached cells by the total number of cells and experiments performed in triplicate. Apoptosis assays: After treatment, attached and detached cells were collected, counted and prepared for terminal uridine deoxynucleotidyl transferase (TUNEL) assay by utilizing an APO-BRDU kit (BD Pharmingen, San Diego, Calif.) and cells analyzed with a FACSCalibur cytometer (Becton Dickinson, San Jose, Calif.). In addition, apoptotic cells were analyzed with Hoechst 33342 staining (1 μg/ml). The percent of apoptotic cells was calculated as the ratio of apoptotic cells to total number of cells.

[5] = tested on: FAK +/+ and FAK −/− mouse embryonic fibroblast; experiment: MTT assay on FAK wildtype and null fibroblasts; format: cell-based; settings: MTT, p<0.05
Description: as §1
(§4) Cell proliferation assay: Cell proliferation assay (Promega) using CellTiter 96 aqueous one solution was performed by adding a small amount of the One Solution Reagent directly to culture wells, incubating for 1-4 hours and then recording absorbance at 490 nm with a spectrophotometric plate reader. The quantity of formazan product as measured by the amount of 490 nm absorbance was directly proportional to the number of living cells in culture.
as §2

IGF-1R+/+ and −/− MEFs = experiment: MTT assay on IGF-1R wildtype and null fibroblasts; format: cell-based, mouse; settings: MTT, p<0.05
Description: as §1, §4, §2

SMILES: CC(=O)C1=C(O)C2(C)c3c(O)c(C)c(O)c(C(C)=O)c3OC2(Sc2ccccc2)CC1=O (centres unmarked) [NSC 250435, 1,1′-(1,7,9-Trihydroxy-8,9b-dimethyl-3-oxo-4-a-(phenylthio)-3,4,4a,9b-tetrahydrodibenzo-[b,d]furan-2,6-diyl)diethanone]
- cell viability (in words) (C8161 melanoma cells [1]): inhibited cell viability
- percentage of interaction between FAK-NT2 and IGF-1R (FAK-NT2 and IGF-1R): around 30%
- cell viability (in words) (A375 melanoma cells): inhibited cell viability

SMILES: O=c1[nH]cc(F)c(=O)[nH]1 [5-FU, 5-Fluorouracil, reference compound]
- sensitivity of cells to single-agent treatment [2]: sensitive
- sensitivity of cells to single-agent treatment [3]: sensitive

SMILES: CNC(=O)c1ccccc1Nc1nc(Nc2ccc(N3CCOCC3)cc2OC)ncc1Cl [TAE 226, reference compound]
- effect on detachment (in words) (C8161 melanoma cells [4]): Greater effects

SMILES: Nc1ncnc2c1c(-c1cccc(OCc3ccccc3)c1)cn2C1CC(CN2CCC2)C1 (centres unmarked) [NVP AEW541, reference compound]
- effect on FAK wildtype compared to null fibroblasts [5]: increased effect
- effect on IGF-1R wildtype compared to null fibroblasts (IGF-1R+/+ and −/− MEFs): increased effect
